Experimental data taken from US20040219102A1, “Compositions for drug delivery” (priority 2003, published 2004).
Where two headings read alike, the source gives them in different places.

What was measured:
[1] = system: JJ5 Breast Cancer cells; test: Binding of EGF-111In-labeled transferrin composition to breast cancer cells; set-up: species or system human
Excerpt: For the normal breast cell line HBL-100, 8000 EGFR/cell has been reported. The expression of EGFR in breast cancer cell lines has a reported range of 800 EGFR/cell for MCF-7 cells to 10^6 EGFR/cell for MDA-MB-468 cells. […] Utilizing the Auger electron emitter ^111In was used in the initial experiments to illustrate the utility of the invention using EGF-^111In-labeled transferrin compositions. […] The cells were transferred to a centrifuge tube and centrifuged. The cell pellet was separated from the supernatant and counted in a g-scintillation counter to determine bound (B) and free (F) radioactivity. Non-specific binding was determined by conducting the assay in 100 nM hEGF. […] Internalized fraction was measured by determining the proportion of radioactivity which could not be displaced from the cell surface by 100 nM hEGF. Cell-associated binding (surface-binding and intracellular accumulation) was expressed as a percentage of medium radioactivity bound per mg of cell study protein. […] EGF-^111In-labeled transferrin composition was rapidly bound by the breast cancer cells and retained for at least 24 hours. Over a 24 hour period at 37° C., <8% was lost from the cells in vitro.

[2] = system: JJ5 Breast Cancer cells; test: Cytotoxicity (colony-forming) assay of EGF-111In-labeled transferrin composition against JJ5 breast cancer cells; format: cell-based, human; conditions: 14 days
Protocol: JJ5 breast cancer cells were incubated with increasing amounts EGF-^111In-labeled transferrin composition or ^111In-oxine, centrifuged to remove free ligand, assayed and then seeded into 50 mm culture dishes. […] The growth medium was removed and the colonies were stained with methylene blue (1% in a 1:1 mixture of ethanol and water) then washed twice.
Using a colony-forming assay, the radiotoxicity of internalization for JJ5 breast cancer cells was evaluated.

[3] = system: JJ5 Breast Cancer cells; test: Growth inhibition assay of EGF-111In-labeled transferrin composition against JJ5 breast cancer cells; format: cell-based, human; conditions: cultured 4 days
Protocol: JJ5 breast cancer cells (prepared from BCBM JJ5) expressing approximately 10^6 epidermal growth factor receptors/cell were incubated with EGF-^111In-labeled transferrin composition, unlabeled hEGF or ^111In-oxine, centrifuged to remove free ligand, then assayed and seeded (10^6 cells/dish) into 35 mm culture dishes.

[4] = system: JJ5 Breast Cancer cells; conditions: cultured 4 days
Protocol: The number of cells seeded was varied from 3×10^4 to 3×10^6 cells to obtain approximately 350 viable colonies/dish taking into account the plating efficiency and the expected level of cytotoxicity. Control dishes contained JJ5 breast cancer cells which were incubated with normal saline. Growth medium was added and the cells were cultured at 37° C./5% CO2 for 4 days. The growth medium was removed and the colonies were stained with methylene blue (1% in a 1:1 mixture of ethanol and water) then washed twice. The number of colonies per dish was counted using a manual colony counter (Manostat Corp). The plating efficiency was calculated by dividing the number of colonies observed by the number of cells seeded in each dish.

Compound: EGF-^111In-labeled transferrin composition
- time retained by the breast cancer cells ([1]; 37° C.): at least 24 hours
- affinity constant for binding to JJ5 cells ([1]; 37° C., 30 minutes, non-specific binding in 100 nM hEGF): 8e+08 L/mol
- number of binding sites ([1]; JJ5 cells): 2.7×10^6
- 111In radioactivity lost from the cells in vitro ([1]; over a 24 hour period at 37° C.): < 8%
- reduction in cell survival ([2]; 8 pCi/cell): 99%
- growth inhibition of the JJ5 cells compared to the medium control ([3]; 3.4 pCi/cell): 83%

Compound: [In+3].[O-]c1cccc2cccnc12.[O-]c1cccc2cccnc12.[O-]c1cccc2cccnc12 [^111In-oxine, reference compound]
- cell killing ([2]; at <6 pCi/cell): greater than 99%
- growth inhibition of the JJ5 cells compared to the medium control ([3]; 3.5 pCi/cell): 91%

Compound: COc1cccc2c1C(=O)c1c(O)c3c(c(O)c1C2=O)C[C@@](O)(C(=O)CO)C[C@@H]3O[C@H]1C[C@H](N)[C@H](O)[C@H](C)O1 [Doxorubicin]
- growth inhibition of the JJ5 cells compared to the medium control [4]: 95%
